Where two headings read alike, the source gives them in different places.
What was measured:
rats [1] = details: cited from earlier work
[2] = system: Musca domestica, resistant; assay: Aerosol Test (knock-down effect on resistant flies, 30 m^3 room); type: in vivo
Description: In each experiment, 3 wire cages each containing 20 resistant male Musca domestica are suspended in rooms of volume 30 m^3. The room is then sprayed using spray cans containing active compounds I, II, III and IV or active compound mixtures I+IV; II+IV; V+VI; V+VI+I and V+VI+II according to formulation Examples 1-9.
The amount of spray applied per spray can is 12.4 g. After spraying, the rooms are sealed and the action of the spray mist on the flies observed continuously through windows. The number of minutes after which 50 and 95% of the animals had fallen onto their backs (knock-down effect) is recorded. After a tesst duration of 1 hour, the percentage of knocked-downanimals is subsequently determined. The table below contains the values determined.

Aedes aegypti = assay: Vapor test (knock-down action on mosquitoes, electroevaporator ovens); type: in vivo; details: compound II 10 mg
Method: Small cellulose tablets containing active compound according to formulation examples Nos. 9 and 10 are placed on the hotplate of small electroevaporator ovens, producing temperatures of 130° and 160° C. The instruments ae connected to the mains via a socket and heated up in living rooms of equal size and equally equipped.
During the experiment, one window in the rooms remained open to the outside in the tilted position. Immediately after switching on the ovens, 2 wire baskets each containing 20 mosquitoes of the Aedes aegypti species, 3-4 days old, were hung in each room. The knock-down action on the mosquitoes was checked half or one hour later. After the oven had burnt for a longer period, fresh mosquitoes were again introduced in the same way into the rooms at certain times, and the activity was again tested after half or one hour. The temperature of the heating oven, the amounts of reactive compounds, the heating duration, the test time and the knockdown effect can be seen from the table below.
(%Knock-down: percentage of mosquitoes which have fallen onto their backs).
In the present test, active compounds I (according to the invention) and II ((-)1R-trans-isomer of fenfluthrin) were employed.

rats [3] = assay: oral toxicity to mammals (LD50, rats); type: in vivo
[4] = oral toxicity to mammals (LD50, rats); type: in vivo; details: rat, in vivo; male rats; oral
insects [5] = assay: insecticidal / biological action (general statements); type: in vivo
insects [6] = details: prior art, ester alone; cited from earlier work
flies = details: versus mixture of equal parts of the 2,3,5,6-tetrafluorobenzyl and 3,5,6-trifluorobenzyl ester; cited from earlier work
[7] = compound I 10 mg, oven 130 °C, animals introduced after 0 h heating, residence 1 h
[8] = compound I 10 mg, oven 130 °C, animals introduced after 8 h heating, residence 1 h
[9] = compound I 10 mg, oven 130 °C, animals introduced after 26 h heating, residence 1 h
[10] = compound I 10 mg, oven 130 °C, animals introduced after 50 h heating, residence 1 h
[11] = compound I 10 mg, oven 160 °C, animals introduced after 0 h heating, residence 1 h
[12] = compound I 10 mg, oven 160 °C, animals introduced after 8 h heating, residence 1 h
[13] = compound I 10 mg, oven 160 °C, animals introduced after 26 h heating, residence 1 h
[14] = compound I 20 mg, oven 130 °C, animals introduced after 0 h heating, residence 1 h
[15] = compound I 20 mg, oven 130 °C, animals introduced after 8 h heating, residence 1 h
[16] = compound I 20 mg, oven 130 °C, animals introduced after 26 h heating, residence 1 h
[17] = compound I 20 mg, oven 130 °C, animals introduced after 50 h heating, residence 1 h
[18] = compound I 20 mg, oven 160 °C, animals introduced after 0 h heating, residence 1 h
[19] = compound I 20 mg, oven 160 °C, animals introduced after 8 h heating, residence 1 h
[20] = compound I 20 mg, oven 160 °C, animals introduced after 28 h heating, residence 1 h
[21] = compound I 30 mg, oven 130 °C, animals introduced after 0 h heating, residence 0.5 h
[22] = compound I 30 mg, oven 130 °C, animals introduced after 8 h heating, residence 0.5 h
[23] = compound I 30 mg, oven 130 °C, animals introduced after 26 h heating, residence 0.5 h
[24] = compound I 30 mg, oven 130 °C, animals introduced after 50 h heating, residence 0.5 h
[25] = compound I 30 mg, oven 160 °C, animals introduced after 0 h heating, residence 0.5 h
[26] = compound I 30 mg, oven 160 °C, animals introduced after 8 h heating, residence 0.5 h
[27] = compound I 30 mg, oven 160 °C, animals introduced after 28 h heating, residence 0.5 h
[28] = compound I 30 mg, oven 160 °C, animals introduced after 32 h heating, residence 0.5 h

| Structure (SMILES) | 50% knock-down after minutes ([2]; 5 mg/30 m^3) [min] | 95% knock-down after minutes ([2]; 5 mg/30 m^3) [min] | % knock-down after 1 hour ([2]; 5 mg/30 m^3, 1 hour) [%] | % knock-down (Aedes aegypti; [7]) [%] | % knock-down (Aedes aegypti; [8]) [%] | % knock-down (Aedes aegypti; [9]) [%] | % knock-down (Aedes aegypti; [10]) [%] | % knock-down (Aedes aegypti; [11]) [%] | % knock-down (Aedes aegypti; [12]) [%] | % knock-down (Aedes aegypti; [13]) [%] | % knock-down (Aedes aegypti; [14]) [%] | % knock-down (Aedes aegypti; [15]) [%] | % knock-down (Aedes aegypti; [16]) [%] | % knock-down (Aedes aegypti; [17]) [%] | % knock-down (Aedes aegypti; [18]) [%] | % knock-down (Aedes aegypti; [19]) [%] | % knock-down (Aedes aegypti; [20]) [%] | % knock-down (Aedes aegypti; [21]) [%] | % knock-down (Aedes aegypti; [22]) [%] | % knock-down (Aedes aegypti; [23]) [%] | other results |
| --- | --- | --- | --- | --- | --- | --- | --- | --- | --- | --- | --- | --- | --- | --- | --- | --- | --- | --- | --- | --- | --- |
| CC1(C)[C@H](C=C(Cl)Cl)[C@H]1C(=O)OCc1c(F)c(F)c(F)c(F)c1F [Active compound II, pentafluorobenzyl (-)1R-trans-2,2-dimethyl-3-(2,2-dichlorovinyl)-cyclopropanecarboxylate] | 19 | 37 | 99 | 100 | 100 | 100 | 97 | 100 | 100 | 40 | 100 | 100 | 100 | 95 | 100 | 100 | 92 | 65 | 100 | 97 | oral LD50 (rats [1]; rats): 90 to 105 mg/kg; % knock-down (Aedes aegypti; [24]): 75%; % knock-down (Aedes aegypti; [25]): 45%; % knock-down (Aedes aegypti; [26]): 100%; % knock-down (Aedes aegypti; [27]): 92%; % knock-down (Aedes aegypti; [28]): 47% |
| CC1(C)[C@H](C=C(Cl)Cl)[C@H]1C(=O)OCc1c(F)c(F)cc(F)c1F [Active compound I, 2,3,5,6-Tetrafluoro-benzyl (+)1R-trans-2,2-dimethyl-3-(2,2-dichlorovinyl)-cyclopropanecarboxylate] | 22 | 47 | 96 | 100 | 100 | 100 | 85 | 100 | 100 | 55 | 100 | 100 | 100 | 100 | 100 | 100 | 100 | 97 | 100 | 100 | therapeutic index (rats [3]; gap between effective dose for the pest and toxicity to mammals): surprisingly favorable therapeutic index; toxicity to mammals lower than that of pentafluorobenzyl (-)1R-trans ester (rats [3]; ratio versus pentafluorobenzyl (-)1R-trans-2,2-dimethyl-3-(2,2-dichlorovinyl)-cyclopropanecarboxylate): 50 times; toxicity to mammals lower than that of tetrafluorobenzyl cis/trans ester (rats [3]; ratio versus tetrafluorobenzyl cis/trans-2,2-dimethyl-3-(2,2-dichlorovinyl)-cyclopropanecarboxylate): more than 250 times; LD50 [4]: > 5000 mg/kg; insecticidal action (insects [5]; compared to pentafluorobenzyl (-)1R-trans ester, at the same or an only slightly higher dosage): comparable insecticidal action; 50% knock-down after minutes ([2]; 7.5 mg/30 m^3): 18 min; 95% knock-down after minutes ([2]; 7.5 mg/30 m^3): 33 min; % knock-down after 1 hour ([2]; 7.5 mg/30 m^3, 1 hour): 99%; % knock-down (Aedes aegypti; [24]): 92%; % knock-down (Aedes aegypti; [25]): 100%; % knock-down (Aedes aegypti; [26]): 100%; % knock-down (Aedes aegypti; [27]): 100%; % knock-down (Aedes aegypti; [28]): 100% |
| CC1(C)C(C=C(Cl)Cl)C1C(=O)OCc1c(F)c(F)cc(F)c1F (stereo not shown) [tetrafluorobenzyl ester] |  |  |  |  |  |  |  |  |  |  |  |  |  |  |  |  |  |  |  |  | insecticidal action (insects [6]): good insecticidal action |
| CC1(C)C(C=C(Cl)Cl)C1C(=O)OCc1c(F)c(F)cc(F)c1F (racemic) [Active compound III, tetrafluorobenzyl cis/trans-2,2-dimethyl-3-(2,2-dichlorovinyl)-cyclopropanecarboxylate] | 38 | 52 | 97 |  |  |  |  |  |  |  |  |  |  |  |  |  |  |  |  |  | oral LD50 (rats [1]; male rats): 10 to 25 mg/kg; biological action (insects [5]; compared with tetrafluorobenzyl (+)1R-trans ester according to the invention): lower biological action |
| COP(=O)(OC)OC=C(Cl)Cl [Active compound IV, dichlorvos] |  |  |  |  |  |  |  |  |  |  |  |  |  |  |  |  |  |  |  |  | % knock-down after 1 hour ([2]; 124 mg/30 m^3, 1 hour): 22% |
| CC1(C)C(C=C(Cl)Cl)C1C(=O)OCc1c(F)c(F)c(F)c(F)c1F (stereo not shown) [pentafluorobenzyl ester] |  |  |  |  |  |  |  |  |  |  |  |  |  |  |  |  |  |  |  |  | amount that killed flies in the same time (flies): only a fifteenth of it killed flies in the same time |

Reference: US4889872A, “2,3,5,6-Tetrafluorobenzyl (+) 1r-trans-2,2-dimethyl-3-(2,2-dichlorovinyl)-cyclopropanecarboxylate” (priority 1987, dated 1989)
